Source: patent US7592025B2, “Vehicles for oral care with magnolia bark extract” (GIC Innovations Company, priority 2005, dated 2009)

How the values were obtained:
[1] = test system: bacteria from freshly-collected stimulated whole saliva (plaque biofilm); assay: Mixed culture saliva biofilm on saliva-coated hydroxyapatite discs, timed exposure to actives; type: cell-based; settings: for pH (of medium): second series (Table 7)
Method: Although useful to show the comparative effect of Magnolia Bark Extract on biofilm formation and MIC growth, the foregoing test procedure may not effectively mimic the in vivo exposure of an oral care product to a developing plaque biofilm. In an in vivo situation, the active could be exposed to the plaque for a defined period of time at a set frequency (for example, for 5 minutes, three times a day). Therefore, a series of comparative experiments were conducted to mimic the in vivo use of potential active ingredients. To perform the tests the saliva compositions listed below in Tables 2 and 3 were prepared.
A mixed culture system that utilizes the bacteria from freshly-collected stimulated whole saliva was used. Saliva cell pellets were used to inoculate saliva-coated hydroxyapatite (S-HA) discs. The discs were placed in 24-well cell culture plates and incubated for up to 3 days. Biofilms were exposed to actives on days 2 and 3 (starting at 18 hours), and quantified on day 4. The number of bacteria was determined by spectrophotometric absorbance or optical density (OD) at 600 nm. The five phases of the experiment were: pellicle formation; bacterial attachment; biofilm growth; exposure to actives; and bacterial enumeration.
To form the pellicles, HA Discs were ultrasonically washed in deionized water and air-dried, then autoclaved. The discs were placed in a 24-well plate with 1 ml 50% sterile saliva (1 part sterile whole saliva: 1 part saliva buffer, filter sterilize after preparation) for 2 hours on slow agitation at room temperature. […]
After overnight incubation (day 2), discs were exposed to controls and actives. […] On day 4 the discs were removed from the medium, the medium pH was measured to obtain an indication of metabolic activity, and the discs were placed into tubes with 2.5 ml PBS, vortexed for 20 sec, and then placed into the ultrasonic bath for another 20 sec. The suspension was transferred into cuvettes and the bacterial cell density determined by OD measurements at 600 nm. […]

S. mutans = assay: MIC and fractional inhibitory index (FIC) of combinations by two-fold serial dilution; type: cell-based, Streptococcus mutans; settings: 24 hours at 37° C., ratio as in label
Method: (§1) To evaluate the germ-kill efficacy and synergist effect when two or more germ-kill actives are combined, testing was performed to determine the ratio of MBE to surface active agent. The germ-kill active and/or surface active agent were dissolved in ethanol or sterile water to give an initial concentration 0.1% to 1%. The solution was diluted with a nutrient broth to give an initial concentration of 0.05% to 0.5%, which was then serially diluted two-fold so that each subsequent dilution contained 50% of the compound concentration of the previous dilution while maintaining a constant level of nutrients for each dilution. These dilutions were inoculated with representative oral microorganisms, or incubated saliva, and incubated for 24 hours at 37° C. For each surface active agent, the lowest dilution that was not turbid was registered as the MIC. The MBC was determined by transferring 10 microliter of liquid from non-turbid tubes to fresh growth media and incubated for 48 hours.
(1) where an FIC value of less than 1.0 is synergistic, an FIC between 1.0 and 2.0 is additive, and an FIC greater than 2.0 is antagonistic.

incubated saliva = assay: MIC of surface active agents and emulsifiers by two-fold serial dilution in nutrient broth; type: cell-based; settings: for MIC (ppm): incubated saliva, 24 hours at 37° C.; for germ-kill efficacy (in words): assessment of Table 9 results
Method: as §1

Compound | MIC (ppm) (incubated saliva) | germ-kill efficacy (in words) (incubated saliva) | also measured
[H]/N=C(\N/C(=N/[H])NCCCCCCNC(=N)NC(=N)Nc1ccc(Cl)cc1)Nc1ccc(Cl)cc1 [CHX, Chlorhexidine] | – | – | pH (of medium, indication of metabolic activity) ([1]; CHX 0.12%, exposure one minute two times a day, day 4): 8.8; pH (of medium) ([1]; CHX 0.1% (1000 ppm)): 8.8
N=C(NCCCCCCNC(=N)NC(=N)Nc1ccc(Cl)cc1)NC(=N)Nc1ccc(Cl)cc1.O=C(O)[C@H](O)[C@@H](O)[C@H](O)[C@H](O)CO.O=C(O)[C@H](O)[C@@H](O)[C@H](O)[C@H](O)CO [Chlorhexidine gluconate, reference compound] | 2 ppm | – | MIC/ppm (S. mutans): 2 ppm
CCCCCCCCCCCCOS(=O)(=O)[O-].[Na+] [SLS, Sodium Lauryl Sulfate] | – | good | pH (of medium) ([1]; SLS 1000 ppm): 5.7
CCCCCCCCCCCC(=O)OCCOCCOCCOCCOCCOCCOCCOCCOCCOCCOCCOCCOCCOCCOCCOCCOCCOCCOCCOCCOCC(OCCOCCOCCOCCOCCOCCOCCOCCOCCOCCOCCOCCOCCOCCOCCOCCOCCOCCOCCOCCO)C1OCC(OCCOCCOCCOCCOCCOCCOCCOCCOCCOCCOCCOCCOCCOCCOCCOCCOCCOCCOCCOCCO)C1OCCOCCOCCOCCOCCOCCOCCOCCOCCOCCOCCOCCOCCOCCOCCOCCOCCOCCOCCOCCO (stereo not shown) [Tween 20, Polysorbate 20] | – | weak or non | –
Cocamidopropyl Betaine | – | good | –
Sodium Brasslate | 500 ppm | moderate | –
Sodium Stearoyl Lactylate | >3000 ppm | weak or non | –
Sucrose Distearate | >500 ppm | weak or non | –
Sucrose Stearate | >500 ppm | weak or non | –
